{"source": "paper PMC6803667", "about": "“Binding site plasticity in viral PPxY Late domain recognition by the third WW domain of human NEDD4” (Scientific Reports, 2019)", "key": {"hNEDD4-WW3 [1]": {"molecular_target": "T1, hNEDD4-WW3 (Homo sapiens, UniProt P46934)", "T1 construct": "comprising aminoacids 834–878 (UniProtKB/Swiss-Prot code P46934); GST-His (pETM-30, TEV site) (N, cleaved yes); made in house; host or cells: E. coli BL21/DE3 is printed only for the pETM-11 NMR construct", "T1 sequence (P46934 834-878)": "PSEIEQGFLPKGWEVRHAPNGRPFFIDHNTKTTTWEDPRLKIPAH"}, "hNEDD4-WW3 [2]": {"molecular_target": "T1, hNEDD4-WW3", "experiment": "biochemical", "format": "binding"}, "hYAP-WW2 [3]": {"molecular_target": "T2, hYAP-WW2 (Homo sapiens, UniProt P46937)", "T2 construct": "comprising aminoacids 165–209 and 228–271 respectively (UniProtKB/Swiss-Prot code Q7Z574); GST-His (pETM-30, TEV site) (N, cleaved yes); made in house", "T2 sequence (P46937 228-271)": "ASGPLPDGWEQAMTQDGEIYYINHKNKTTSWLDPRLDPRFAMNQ", "format": "binding", "settings": "pH 7"}, "hYAP-WW1 [4]": {"molecular_target": "T3, hYAP-WW1 (Homo sapiens, UniProt P46937)", "T3 construct": "comprising aminoacids 165–209 and 228–271 respectively (UniProtKB/Swiss-Prot code Q7Z574); GST-His (pETM-30, TEV site) (N, cleaved yes); made in house", "T3 sequence (P46937 165-209)": "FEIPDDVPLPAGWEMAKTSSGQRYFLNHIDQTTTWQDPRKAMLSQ", "format": "binding", "settings": "pH 7"}, "hNEDD4-WW3 [5]": {"molecular_target": "T1, hNEDD4-WW3", "experiment": "biochemical", "format": "binding", "remark": "listed apart in the source"}, "hYAP-WW1 [6]": {"molecular_target": "T3, hYAP-WW1", "experiment": "biochemical", "format": "binding"}, "rNEDD4-WW2": {"molecular_target": "rNEDD4-WW2", "settings": "cited from earlier work"}, "hITCHY-WW3": {"molecular_target": "hITCHY-WW3", "settings": "cited from earlier work"}, "SMURF1-WW2": {"molecular_target": "SMURF1-WW2", "settings": "cited from earlier work"}, "hYAP-WW2 [7]": {"molecular_target": "T2, hYAP-WW2", "settings": "cited from earlier work"}, "NEDD4L-WW2": {"molecular_target": "NEDD4L-WW2", "settings": "cited from earlier work"}, "SMURF2-WW3": {"molecular_target": "SMURF2-WW3", "settings": "cited from earlier work"}, "hYAP-WW1 [8]": {"molecular_target": "T3, hYAP-WW1", "settings": "cited from earlier work"}, "hNEDD4-WW3 [9]": {"molecular_target": "T1, hNEDD4-WW3", "settings": "cited from earlier work"}, "SU(dx)-WW4": {"molecular_target": "SU(dx)-WW4", "settings": "cited from earlier work"}, "hNEDD4L-WW3": {"molecular_target": "hNEDD4L-WW3", "settings": "cited from earlier work"}, "dNEDD4-WW3": {"molecular_target": "dNEDD4-WW3", "settings": "cited from earlier work"}}, "note": "Several values for one entry are separate records, joined by “and”; a condition that tells them apart may be missing. Equal values may be shown once. Read-outs that look alike come from different tables or passages of the source. Residues, ends and D or L forms follow the SMILES beside them. No end group written: not given here."}
{"molecule": "CC[C@H](C)[C@H](NC(C)=O)C(=O)N[C@@H](CC(C)C)C(=O)N1CCC[C@H]1C(=O)N[C@H](C(=O)N[C@@H](C)C(=O)N1CCC[C@H]1C(=O)N1CCC[C@H]1C(=O)N[C@@H](CCC(=O)O)C(=O)N[C@@H](Cc1ccc(O)cc1)C(=O)N[C@@H](CCSC)C(=O)N[C@@H](CCC(=O)O)C(=O)N[C@@H](C)C(N)=O)[C@@H](C)O", "note": "[Ebola]", "values": [{"measurement": "amount by which theoretical enthalpy is smaller than the experimental enthalpy", "setting": "hNEDD4-WW3 [1]", "value": 7.17, "unit": "kcal/mol"}, {"measurement": "ΔH conf", "setting": "hNEDD4-WW3 [1]", "value": "-30,01 kJ·mol -1"}]}
{"molecule": "CC(=O)N1CCC[C@H]1C(=O)N1CCC[C@H]1C(=O)N1CCC[C@H]1C(=O)N[C@@H](Cc1ccc(O)cc1)C(=O)N[C@H](C(=O)N[C@@H](CCC(=O)O)C(=O)N1CCC[C@H]1C(=O)N[C@H](C(=O)N[C@@H](C)C(=O)N1CCC[C@H]1C(N)=O)[C@@H](C)O)C(C)C", "note": "[HTLV1 ter] (Ac-PPPYVEPTAP-NH2)", "values": [{"measurement": "ΔHap", "setting": "hNEDD4-WW3 [2]; pH 7", "value": "-17.7 ± 0.19", "unit": "kcal/mol"}, {"measurement": "Kd", "setting": "hYAP-WW2 [3]", "value": "n. b."}, {"measurement": "Kd", "setting": "hYAP-WW1 [4]", "value": "n. b."}]}
{"molecule": "CC[C@H](C)[C@H](NC(=O)[C@H](CCC(N)=O)NC(=O)[C@@H]1CCCN1C(=O)[C@H](CC(=O)O)NC(=O)[C@H](CO)NC(C)=O)C(=O)N1CCC[C@H]1C(=O)N1CCC[C@H]1C(=O)N1CCC[C@H]1C(=O)N[C@@H](Cc1ccc(O)cc1)C(=O)N[C@H](C(=O)N[C@@H](CCC(=O)O)C(=O)N1CCC[C@H]1C(N)=O)C(C)C", "note": "[HTLV1] (Ac-SDPQIPPPYVEP-NH2)", "values": [{"measurement": "ΔΔH HTLV-Ebola", "setting": "hNEDD4-WW3 [2]", "value": "−20", "unit": "kJ/mol^−1"}, {"measurement": "amount by which theoretical enthalpy is smaller than the experimental enthalpy", "setting": "hNEDD4-WW3 [1]", "value": 12, "unit": "kcal/mol"}, {"measurement": "ΔH conf", "setting": "hNEDD4-WW3 [1]", "value": "-49,97 kJ·mol -1"}]}
{"molecule": "CSCC[C@H](NC(C)=O)C(=O)N[C@@H](CCC(N)=O)C(=O)N[C@@H](Cc1ccc(O)cc1)C(=O)N[C@@H](CC(C)C)C(=O)N[C@@H](CC(N)=O)C(=O)N1CCC[C@H]1C(=O)N1CCC[C@H]1C(=O)N1CCC[C@H]1C(=O)N[C@@H](Cc1ccc(O)cc1)C(=O)N[C@@H](C)C(=O)N[C@@H](CC(=O)O)C(=O)N[C@@H](Cc1c[nH]cn1)C(N)=O", "note": "[Marburg]", "values": [{"measurement": "Kd", "setting": "hNEDD4-WW3 [2]", "value": "51 ± 1", "unit": "µM"}, {"measurement": "ΔHap", "setting": "hNEDD4-WW3 [2]; pH 7", "value": "-17.5 ± 0.17", "unit": "kcal/mol"}]}
{"molecule": "CC(=O)N1CCC[C@H]1C(=O)N1CCC[C@H]1C(=O)N1CCC[C@H]1C(=O)N[C@@H](Cc1ccc(O)cc1)C(N)=O", "note": "[PPPY] (Ac-PPPY-NH2)", "values": [{"measurement": "Kd", "setting": "hNEDD4-WW3 [5]", "value": 201, "unit": "µM"}, {"measurement": "ΔHap", "setting": "hNEDD4-WW3 [5]; pH 7", "value": "^*−38 ± 1 kJ mol^−1"}, {"measurement": "Kd", "setting": "hYAP-WW1 [6]", "value": "320 ± 30", "unit": "µM"}, {"measurement": "ΔHap", "setting": "hYAP-WW1 [6]; pH 7", "value": "^*−39 ± 3 kJ mol^−1"}, {"measurement": "Kd", "setting": "hYAP-WW2 [3]", "value": "n. b."}]}
{"molecule": "CC(=O)N[C@@H](CC(=O)O)C(=O)N[C@@H](CC(C)C)C(=O)N[C@@H](Cc1c[nH]c2ccccc12)C(=O)N[C@@H](CC(C)C)C(=O)N1CCC[C@H]1C(=O)N1CCC[C@H]1C(=O)N1CCC[C@H]1C(=O)N[C@@H](CCC(=O)O)C(=O)N[C@@H](Cc1ccc(O)cc1)C(=O)N[C@H](C(=O)N1CCC[C@H]1C(=O)N[C@@H](CC(C)C)C(N)=O)C(C)C", "note": "[Rabies]", "values": [{"measurement": "Kd", "setting": "hNEDD4-WW3 [2]", "value": "51 ± 1", "unit": "µM"}, {"measurement": "ΔHap", "setting": "hNEDD4-WW3 [2]; pH 7", "value": "-15.7 ± 0.19", "unit": "kcal/mol"}, {"measurement": "Kd", "setting": "hYAP-WW2 [3]", "value": "n. b."}, {"measurement": "ΔHap", "setting": "hYAP-WW1 [4]", "value": "-15.2 ± 0.22", "unit": "kcal/mol"}]}
{"molecule": "CC(=O)N[C@@H](CCC(=O)O)C(=O)N[C@@H](Cc1ccc(O)cc1)C(=O)N1CCC[C@H]1C(=O)N1CCC[C@H]1C(=O)N[C@@H](Cc1ccc(O)cc1)C(=O)N1CCC[C@H]1C(=O)N1CCC[C@H]1C(=O)N1CCC[C@H]1C(=O)N1CCC[C@H]1C(=O)N[C@@H](Cc1ccc(O)cc1)C(=O)N1CCC[C@H]1C(=O)N[C@@H](CO)C(=O)NCC(N)=O", "note": "[p53bp2] (Ac-EYPPYPPPPYPSG-NH2)", "values": [{"measurement": "binding selectivity between hNEDD4-WW3, YAP-WW1 and YAP-WW2", "setting": "hNEDD4-WW3 [2]", "value": "do not distinguish between the three WW domains"}, {"measurement": "Kd", "setting": "hNEDD4-WW3 [2]", "value": "4.1 µM and 5.3 µM and 9.1 µM"}, {"measurement": "ΔCp", "setting": "hNEDD4-WW3 [2]; pH 7", "value": "−1.59 kJ K^−1 mol^−1 and −1.59 ± 0.01 kJ K^−1 mol^−1"}, {"measurement": "ΔHap", "setting": "hYAP-WW2 [3]", "value": "-13.6 ± 0.24", "unit": "kcal/mol"}]}
{"molecule": "APLpSPMpSPPGYKLV [CX43-Cter, Cx43 carboxyl terminus peptide of literature complex 2N8T]", "values": [{"measurement": "Kd", "setting": "rNEDD4-WW2", "value": 430, "unit": "µM"}]}
{"molecule": "EEPPPPYED [Epstein-Barr, Epstein-Barr peptide of literature complex 2JO9]", "values": [{"measurement": "Kd", "setting": "hITCHY-WW3", "value": 52, "unit": "µM"}]}
{"molecule": "ELESPPPPYSRYPMD [Smad7, Smad7 peptide […] of literature complexes 2LTY, 2LTX, 2LTZ, 2LTV, 2LTW]", "values": [{"measurement": "Kd", "setting": "SMURF1-WW2", "value": 4.2, "unit": "µM"}, {"measurement": "Kd", "setting": "hYAP-WW2 [7]", "value": 60, "unit": "µM"}, {"measurement": "Kd", "setting": "NEDD4L-WW2", "value": 4.2, "unit": "µM"}, {"measurement": "Kd", "setting": "SMURF2-WW3", "value": 4.5, "unit": "µM"}, {"measurement": "Kd", "setting": "hYAP-WW1 [8]", "value": 6.9, "unit": "µM"}]}
{"molecule": "GPPPY ({n‑octyl}-GPPPY) [peptide of literature complex 1K9Q]", "values": [{"measurement": "Kd", "setting": "hYAP-WW1 [8]", "value": 700, "unit": "µM"}]}
{"molecule": "GSTLPIPGTPPPNYDSL [βENaC, βENaC peptide of literature complex 1I5H]", "values": [{"measurement": "Kd", "setting": "hNEDD4-WW3 [9]", "value": 21, "unit": "µM"}]}
{"molecule": "GTPPPPYTVG [WBP1, WBP1 peptide of literature complex 1JMQ]", "values": [{"measurement": "Kd", "setting": "hYAP-WW1 [8]", "value": 40, "unit": "µM"}]}
{"molecule": "NTGAKQPPSYEDCIK [Notch, Notch peptide of literature complex 2JMF]", "values": [{"measurement": "Kd", "setting": "SU(dx)-WW4", "value": 45, "unit": "µM"}]}
{"molecule": "PLPPY [peptide of literature complex 1K9R]", "values": [{"measurement": "Kd", "setting": "hYAP-WW1 [8]", "value": 500, "unit": "µM"}]}
{"molecule": "RLDLPPYETFEDI [HECT-Cterm, HECT C-terminal peptide of literature complex 2MPT]", "values": [{"measurement": "Kd", "setting": "hNEDD4L-WW3", "value": 4, "unit": "µM"}]}
{"molecule": "RPE−5AP−3P−2SY0AEVVT (RPEAPPSYAEVVT) [ARRDC3]", "values": [{"measurement": "Kd", "setting": "hNEDD4-WW3 [9]", "value": "3.3 µM and 3 µM"}]}
{"molecule": "RPE−5AP−3P−2SY0AEVVT [ARRDC3]", "values": [{"measurement": "ΔH exp (25C)", "setting": "hNEDD4-WW3 [9]", "value": "-75,4 kJ·mol -1"}, {"measurement": "ΔH conf", "setting": "hNEDD4-WW3 [1]", "value": "-64,67 kJ·mol -1"}]}
{"molecule": "TAPPPAYATLG [αENaC, αENaC PY motif peptide of literature complex 2M30]", "values": [{"measurement": "Kd", "setting": "hNEDD4-WW3 [9]", "value": 45, "unit": "µM"}, {"measurement": "ΔH exp (25C)", "setting": "hNEDD4-WW3 [9]", "value": "-58,2 kJ·mol -1"}, {"measurement": "ΔH conf", "setting": "hNEDD4-WW3 [1]", "value": "-48,29 kJ·mol -1"}]}
{"molecule": "TGLPSYDEALH [Comm, Comm PY motif peptide of literature complex 2EZ5]", "values": [{"measurement": "Kd", "setting": "dNEDD4-WW3", "value": 3.1, "unit": "µM"}]}
